{"source": "patent US20190275027A1", "about": "(priority 2018, published 2019)", "key": {"MARV": {"test_system": "MARV", "test": "organism not typed", "format": "cell-based, Marburg virus", "conditions": "read-out: MARV IC50"}, "[1]": {"test_system": "wild type Ebola virus, Mayinga strain", "test": "microbe, parasite or virus in culture", "format": "cell-based", "conditions": "for IC50: Zaire ebolavirus, Huh-7, 24 h, read-out: EBOV IC50"}, "EBOV virus": {"test_system": "EBOV virus", "set-up": "species or system BALB/c mice", "conditions": "mouse, in vivo"}, "EBOV": {"test_system": "EBOV", "set-up": "species or system murine", "conditions": "mouse, in vivo"}, "physchem": {"test": "physchem", "conditions": "pH 7.4, aqueous buffer, kinetic from dmso stock"}}, "note": "Several values for one entry are separate records, joined by “and”; a condition that tells them apart may be missing. Equal values may be shown once. Read-outs that look alike come from different tables or passages of the source.", "data": [{"molecule": "COc1cc2c(cc1OC)[C@@H](Cc1cccc(Oc3cccc(C[C@@H]4c5cc6c(cc5CCN4C)OCO6)c3)c1)N(C)CC2", "note": "[B3-36^R,R]", "values": [{"measurement": "IC50", "setting": "MARV", "result": "495 ± 66", "unit": "nM"}, {"measurement": "IC50", "setting": "[1]", "result": "413 ± 51", "unit": "nM"}]}, {"molecule": "COc1ccc2c(c1)CCN(C)[C@@H]2Cc1ccc(Oc2ccc(C[C@@H]3c4ccc(OC)cc4CCN3C)cc2)cc1", "note": "[B4-14^RR]", "values": [{"measurement": "EBOV activity (in words)", "setting": "[1]", "result": "good activity"}]}, {"molecule": "COc1cc2c(cc1OC)[C@@H](Cc1ccc(Oc3ccc(C[C@@H]4c5cc(OC)c(OC)cc5CCN4C)cc3OC)c(OC)c1)N(C)CC2", "note": "[Compound 1]", "values": [{"measurement": "IC50", "setting": "MARV", "result": "506 ± 87", "unit": "nM"}, {"measurement": "IC50", "setting": "[1]", "result": "730 ± 60", "unit": "nM"}, {"measurement": "% Survival", "setting": "EBOV virus", "result": 100, "unit": "%"}, {"measurement": "Efficacy against Ebola virus challenge (in words)", "setting": "EBOV virus", "result": "statistically significant improvement when compared to TETN and saline"}, {"measurement": "Survival", "setting": "EBOV virus", "result": "7/7"}, {"measurement": "Efficacy (in words)", "setting": "EBOV", "result": "good efficacy"}, {"measurement": "Survival", "setting": "EBOV", "result": "4/7 and 0/7"}, {"measurement": "solubility", "setting": "physchem", "result": "> 100", "unit": "µM"}]}, {"molecule": "COc1cc2c(cc1OC)[C@@H](Cc1ccc(Oc3cc(C[C@@H]4c5cc(OC)c(OC)cc5CCN4C)ccc3OC)c(OC)c1)N(C)CC2", "note": "[Compound 2]", "values": [{"measurement": "IC50", "setting": "MARV", "result": "1240 ± 269", "unit": "nM"}, {"measurement": "IC50", "setting": "[1]", "result": "1050 ± 90", "unit": "nM"}, {"measurement": "% Survival", "setting": "EBOV virus", "result": 100, "unit": "%"}, {"measurement": "Efficacy against Ebola virus challenge (in words)", "setting": "EBOV virus", "result": "statistically significant improvement when compared to TETN and saline"}, {"measurement": "Survival", "setting": "EBOV virus", "result": "7/7"}, {"measurement": "% Survival", "setting": "EBOV", "result": "57% and 43%"}, {"measurement": "Efficacy (in words)", "setting": "EBOV", "result": "good efficacy"}, {"measurement": "Survival", "setting": "EBOV", "result": "4/7 and 3/7"}, {"measurement": "Efficacy (in words)", "setting": "EBOV; 5 mg/kg", "result": "moderate efficacy"}, {"measurement": "solubility", "setting": "physchem", "result": "> 100", "unit": "µM"}]}, {"molecule": "COc1cc2c(cc1OC)[C@@H](Cc1ccc(OC)c(Oc3cc(C[C@@H]4c5cc(OC)c(OC)cc5CCN4C)ccc3OC)c1)N(C)CC2", "note": "[Compound 3]", "values": [{"measurement": "IC50", "setting": "MARV", "result": "1100 ± 222", "unit": "nM"}, {"measurement": "IC50", "setting": "[1]", "result": "1220 ± 119", "unit": "nM"}, {"measurement": "% Survival", "setting": "EBOV virus", "result": 71, "unit": "%"}, {"measurement": "Efficacy against Ebola virus challenge (in words)", "setting": "EBOV virus", "result": "good efficacy"}, {"measurement": "Survival", "setting": "EBOV virus", "result": "5/7"}, {"measurement": "solubility", "setting": "physchem", "result": "> 100", "unit": "µM"}]}, {"molecule": "COc1cc2c(cc1OC)[C@@H](Cc1ccc(Oc3ccc(C[C@@H]4c5cc(OC)c(OC)cc5CCN4C)cc3OC)nc1)N(C)CC2", "note": "[Compound 4]", "values": [{"measurement": "IC50", "setting": "MARV", "result": "566 ± 108", "unit": "nM"}, {"measurement": "IC50", "setting": "[1]", "result": "446 ± 57", "unit": "nM"}, {"measurement": "% Survival", "setting": "EBOV virus", "result": 71, "unit": "%"}, {"measurement": "Efficacy against Ebola virus challenge (in words)", "setting": "EBOV virus", "result": "good efficacy"}, {"measurement": "Survival", "setting": "EBOV virus", "result": "5/7"}, {"measurement": "solubility", "setting": "physchem", "result": "> 100", "unit": "µM"}]}, {"molecule": "COc1ccc2c(c1)CCN(C)[C@@H]2Cc1ccc(Oc2ccc(C[C@@H]3c4cc(OC)c(OC)cc4CCN3C)cn2)c(OC)c1", "note": "[Compound 5]", "values": [{"measurement": "IC50", "setting": "MARV", "result": "414 ± 70", "unit": "nM"}, {"measurement": "IC50", "setting": "[1]", "result": "505 ± 32", "unit": "nM"}, {"measurement": "solubility", "setting": "physchem", "result": "> 100", "unit": "µM"}]}, {"molecule": "COc1ccc2c(c1)CCN(C(C)C)[C@@H]2Cc1ccc(Oc2ccc(C[C@@H]3c4ccc(OC)cc4CCN3C(C)C)cc2)cc1", "note": "[Compound 41]", "values": [{"measurement": "IC50", "setting": "MARV", "result": "188 ± 40", "unit": "nM"}, {"measurement": "IC50", "setting": "[1]", "result": "249 ± 19", "unit": "nM"}]}, {"molecule": "COc1ccc2c(c1)CCN(Cc1ccccc1)[C@@H]2Cc1ccc(Oc2ccc(C[C@@H]3c4ccc(OC)cc4CCN3Cc3ccccc3)cc2)cc1", "note": "[Compound 42]", "values": [{"measurement": "IC50", "setting": "MARV", "result": "> 1000", "unit": "nM"}, {"measurement": "IC50", "setting": "[1]", "result": "> 1000", "unit": "nM"}]}, {"molecule": "COc1cc(C[C@@H]2c3cc4c(cc3CCN2C)OCO4)ccc1Oc1ccc(C[C@@H]2c3cc4c(cc3CCN2C)OCO4)cc1OC", "note": "[Compound 45]", "values": [{"measurement": "IC50", "setting": "MARV", "result": "339 ± 56", "unit": "nM"}, {"measurement": "IC50", "setting": "[1]", "result": "372 ± 34", "unit": "nM"}]}, {"molecule": "COc1cc2c(cc1OC)[C@@H](Cc1ccc(Oc3cccc(C[C@@H]4c5cc(OC)c(OC)cc5CCN4C)c3)nc1)N(C)CC2", "note": "[Compound 48]", "values": [{"measurement": "IC50", "setting": "MARV", "result": "1490 ± 320", "unit": "nM"}, {"measurement": "IC50", "setting": "[1]", "result": "875 ± 110", "unit": "nM"}]}, {"molecule": "COc1cc2c(cc1OC)[C@@H](Cc1cccc(Oc3cc(C[C@@H]4c5cc(OC)c(OC)cc5CCN4C)ccc3OC)c1)N(C)CC2", "note": "[Compound 51]", "values": [{"measurement": "IC50", "setting": "MARV", "result": "1180 ± 179", "unit": "nM"}, {"measurement": "IC50", "setting": "[1]", "result": "1090 ± 72", "unit": "nM"}]}, {"molecule": "COc1ccc(C[C@@H]2c3cc4c(cc3CCN2C)OCO4)cc1Oc1cc(C[C@@H]2c3cc4c(cc3CCN2C)OCO4)ccc1OC", "note": "[Compound 52]", "values": [{"measurement": "IC50", "setting": "MARV", "result": "585 ± 154", "unit": "nM"}, {"measurement": "IC50", "setting": "[1]", "result": "615 ± 40", "unit": "nM"}]}, {"molecule": "COc1ccc2c(c1)CCN(C)[C@@H]2Cc1cccc(Oc2cc(C[C@@H]3c4ccc(OC)cc4CCN3C)ccc2OC)c1", "note": "[Compound B3-12]", "values": [{"measurement": "IC50", "setting": "MARV", "result": "839 ± 158", "unit": "nM"}, {"measurement": "IC50", "setting": "[1]", "result": "1110 ± 179", "unit": "nM"}]}, {"molecule": "CN1CCc2cc3c(cc2[C@H]1Cc1cccc(Oc2cccc(C[C@@H]4c5cc6c(cc5CCN4C)OCO6)c2)c1)OCO3", "note": "[Compound B3-35]", "values": [{"measurement": "IC50", "setting": "MARV", "result": "537 ± 60", "unit": "nM"}, {"measurement": "IC50", "setting": "[1]", "result": "789 ± 97", "unit": "nM"}]}, {"molecule": "COc1ccc2c(c1)CCN(C)[C@@H]2Cc1ccc(OC)c(Oc2cc(C[C@@H]3c4ccc(OC)cc4CCN3C)ccc2OC)c1", "note": "[Compound B3-42]", "values": [{"measurement": "IC50", "setting": "MARV", "result": "418 ± 47", "unit": "nM"}, {"measurement": "IC50", "setting": "[1]", "result": "617 ± 45", "unit": "nM"}]}, {"molecule": "COc1ccc2c(c1)CCN(C)[C@@H]2Cc1ccc(Oc2ccc(C[C@@H]3c4ccc(OC)cc4CCN3C)cc2OC)cc1", "note": "[Compound B4-17]", "values": [{"measurement": "IC50", "setting": "MARV", "result": "133 ± 26", "unit": "nM"}, {"measurement": "IC50", "setting": "[1]", "result": "134 ± 16", "unit": "nM"}]}, {"molecule": "COc1ccc2c(c1)CCN(C)[C@@H]2Cc1cccc(Oc2ccc(C[C@@H]3c4cc(OC)c(OC)cc4CCN3C)cc2)c1", "note": "[Compound B4-21]", "values": [{"measurement": "IC50", "setting": "MARV", "result": "467 ± 93", "unit": "nM"}, {"measurement": "IC50", "setting": "[1]", "result": "424 ± 82", "unit": "nM"}]}, {"molecule": "COc1ccc2c(c1)CCN(C)[C@@H]2Cc1ccc(Oc2ccc(C[C@@H]3c4cc(OC)c(OC)cc4CCN3C)cc2)cc1", "note": "[Compound B4-24]", "values": [{"measurement": "IC50", "setting": "MARV", "result": "130 ± 49", "unit": "nM"}, {"measurement": "IC50", "setting": "[1]", "result": "125 ± 26", "unit": "nM"}]}, {"molecule": "COc1cc2c(cc1OC)[C@@H](Cc1ccc(Oc3cccc(C[C@@H]4c5cc(OC)c(OC)cc5CCN4C)c3)cc1)N(C)CC2", "note": "[Compound B4-26]", "values": [{"measurement": "IC50", "setting": "MARV", "result": "770 ± 89", "unit": "nM"}, {"measurement": "IC50", "setting": "[1]", "result": "530 ± 81", "unit": "nM"}]}, {"molecule": "COc1ccc2c(c1)CCN(C)[C@@H]2Cc1cccc(Oc2ccc(C[C@@H]3c4cc5c(cc4CCN3C)OCO5)cc2)c1", "note": "[Compound B4-31]", "values": [{"measurement": "IC50", "setting": "MARV", "result": "1180 ± 105", "unit": "nM"}, {"measurement": "IC50", "setting": "[1]", "result": "775 ± 156", "unit": "nM"}]}, {"molecule": "COc1ccc2c(c1)CCN(C)[C@@H]2Cc1ccc(Oc2ccc(C[C@@H]3c4cc5c(cc4CCN3C)OCO5)cc2)cc1", "note": "[Compound B4-34]", "values": [{"measurement": "IC50", "setting": "MARV", "result": "148 ± 48", "unit": "nM"}, {"measurement": "IC50", "setting": "[1]", "result": "65 ± 16", "unit": "nM"}]}, {"molecule": "COc1cc2c(cc1OC)[C@@H](Cc1cccc(Oc3ccc(C[C@@H]4c5cc6c(cc5CCN4C)OCO6)cc3)c1)N(C)CC2", "note": "[Compound B4-36]", "values": [{"measurement": "IC50", "setting": "MARV", "result": "487 ± 88", "unit": "nM"}, {"measurement": "IC50", "setting": "[1]", "result": "415 ± 43", "unit": "nM"}]}, {"molecule": "COc1ccc2cc1Oc1ccc(cc1)C[C@H]1c3cc(c(OC)cc3CCN1C)Oc1c(OC)c(OC)cc3c1[C@H](C2)N(C)CC3", "note": "[TETN, tetrandrine, reference compound]", "values": [{"measurement": "IC50", "setting": "MARV", "result": "370 ± 95", "unit": "nM"}, {"measurement": "IC50", "setting": "[1]", "result": "292 ± 31", "unit": "nM"}, {"measurement": "% Survival", "setting": "EBOV virus", "result": 57, "unit": "%"}, {"measurement": "Survival", "setting": "EBOV virus", "result": "4/7"}, {"measurement": "solubility", "setting": "physchem", "result": "> 100", "unit": "µM"}]}]}
